Measured values published in PubChem BioAssay (NCI).
Several values for one entry are separate records, joined by “and”; a condition that tells them apart may be missing. Identical values can stand only once.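 48-hour exposure; five concentrations; linearly interpolated endpoints. GI50: concentration for 50% inhibition of growth. At the TGI there is no net growth.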

What was measured:
Assay in all cases: DTP human tumour cell line panel, 48 h
M19-MEL melanoma = test system: M19-MEL melanoma
T-47D breast = test system: T-47D breast
UACC-62 melanoma = test system: UACC-62 melanoma
786-0 renal = test system: 786-0 renal
OVCAR-8 ovarian = test system: OVCAR-8 ovarian
LXFL 529 NSCLC = test system: LXFL 529 NSCLC
UO-31 renal = test system: UO-31 renal
HCT-15 colon = test system: HCT-15 colon
MCF7 breast = test system: MCF7 breast
SK-MEL-28 melanoma = test system: SK-MEL-28 melanoma

Structure (SMILES)	TGI (M19-MEL melanoma) [µM]	TGI (T-47D breast) [µM]	TGI (UACC-62 melanoma) [µM]	GI50 (786-0 renal) [nM]	TGI (786-0 renal)	GI50 (OVCAR-8 ovarian) [nM]	TGI (OVCAR-8 ovarian)	TGI (LXFL 529 NSCLC) [µM]	GI50 (UO-31 renal) [nM]	TGI (UO-31 renal)	TGI (HCT-15 colon) [µM]	TGI (MCF7 breast) [nM]	GI50 (M19-MEL melanoma) [µM]	GI50 (UACC-62 melanoma) [µM]	GI50 (SK-MEL-28 melanoma) [µM]	TGI (SK-MEL-28 melanoma) [µM]	GI50 (LXFL 529 NSCLC) [µM]	GI50 (HCT-15 colon) [µM]
O=c1cc(-c2cccc(Cl)c2)[nH]c2cc3c(cc12)OCO3	75	65.3	0.556	544	23.4 µM and 23.8 µM	760	35 µM and 18.1 µM	2.73	743	75 µM and > 100 µM	2.81	> 100000						
O=c1c2ccccc2c(=O)n2n1-c1cccc(c1)CSSCc1cccc-2c1	> 100		> 100		> 100 µM	> 100000	> 100 µM	> 100	> 100000	> 100 µM	> 100		> 100	> 100	> 100	> 100	> 100	> 100
Cc1cccc(-c2nc(=S)[nH][nH]2)c1	> 100		> 100		> 100 µM		> 100 µM	> 100		> 100 µM	> 100					> 100		
O=C(c1ccccc1)c1nc2ccc(Cl)cc2cc1C(Br)Br	1.49	1.12	2.06		0.378 µM		1.32 µM	0.77		1.27 µM	0.879	1960				0.814		
O=c1c(-c2cccc3ccccc23)c(-c2cccc3ccccc23)c1=O	> 100		> 100		12.7 µM		13.6 µM	> 85		> 100 µM	> 52.9					> 100		
CC1COS(=O)N1c1ccccc1 (configuration not stated)	> 100		> 100		> 100 µM		> 100 µM	> 100		> 100 µM	> 100					> 100		
NCCNCCNCc1c2ccccc2c(CNCCNCCN)c2ccccc12	> 100		> 100		> 100 µM		> 100 µM	> 100		> 100 µM	> 100					> 100		
O=C(O)c1ccccc1NS(=O)(=O)c1ccc(Cl)cc1	> 100		> 100		> 100 µM		> 100 µM	> 100		> 100 µM	> 100					> 100		
